Results reported in PubChem BioAssay (NCI).
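Grown in 96-well plates, cells were treated for 48 hours with each compound at five concentrations. Insufficient inhibition: endpoint recorded as highest concentration tested. GI50: concentration for 50% inhibition of growth. The concentration for full growth arrest is given as TGI.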

Legend:
Test in all cases: NCI-60 cell line screen, 48 h
[1] = test system: HCT-15 colon
[2] = test system: MDA-MB-435
[3] = test system: SR leukemia
[4] = test system: RXF 393 renal
[5] = test system: MOLT-4 leukemia
[6] = test system: M14 melanoma
[7] = test system: OVCAR-4 ovarian
[8] = test system: SK-MEL-2 melanoma
[9] = test system: 786-0 renal
[10] = test system: K-562 leukemia

Row | Structure (SMILES) | GI50 [1] | TGI [1] | GI50 [2] | TGI [2] | GI50 [3] | TGI [3] | GI50 [4] | TGI [4] | GI50 [5] | TGI [5] | GI50 [6] | TGI [6] | GI50 [7] | TGI [7] | GI50 [8] | TGI [8] | GI50 [9] | TGI [9] | TGI [10] | GI50 [10]
1 | Nc1c(C(=O)Nc2ccncc2)sc2nc3c(cc12)CCCCCCCC3 | 0.962 µM | 1.8 µM | 0.869 µM | 1.6 µM | 1.62 µM | 50 µM | 0.938 µM | 1.7 µM | 1.22 µM | 2.76 µM | 0.93 µM | 1.75 µM | 0.861 µM | 1.6 µM | 0.975 µM | 1.79 µM | 0.93 µM | 1.66 µM | – | –
2 | CCC(C)COC(=O)c1ccc(N=Cc2ccc(C=Nc3ccc(C(=O)OCC(C)CC)cc3)cc2)cc1 (configuration not stated) | – | > 100 µM | – | – | – | > 100 µM | – | > 100 µM | – | > 100 µM | – | > 100 µM | – | > 100 µM | – | > 100 µM | – | > 100 µM | > 100 µM | –
3 | COc1ccc(NC(=O)/C(Cc2cc(=O)oc3cc(O)ccc23)=N\NC(C)(C)C)c(OC)c1 | – | > 100 µM | – | – | – | > 100 µM | – | – | – | > 100 µM | – | > 100 µM | – | > 100 µM | – | > 100 µM | – | > 100 µM | > 100 µM | –
4 | COc1cc2c(cc1OCCCNC(=O)c1cccc3c(=O)c4ccccc4[nH]c13)N=C[C@@H]1CCCN1C2=O | 0.114 µM | > 100 µM | – | – | – | > 45.4 µM | 0.0865 µM | 0.301 µM | 4.03 µM | > 100 µM | < 0.01 µM | < 0.01 µM | < 0.01 µM | 10.8 µM | 2.37 µM | 4.82 µM | < 0.01 µM | 24 µM | > 100 µM | –
5 | CN1CCOC(c2ccccc2)O1 (configuration not stated) | – | > 100 µM | – | – | – | > 100 µM | – | > 100 µM | – | > 100 µM | – | > 100 µM | – | > 100 µM | – | > 100 µM | – | > 100 µM | > 100 µM | –
6 | O=C1C=CC(=O)c2cc3cc(CBr)ccc3cc21 | 5.95 µM | 17.3 µM | 11.8 µM | 33.7 µM | 0.0371 µM | 0.0923 µM | 11 µM | 27.9 µM | – | – | 8.58 µM | 23.4 µM | – | – | 33.3 µM | > 83.5 µM | 2.28 µM | 5.24 µM | 6.03 µM | 0.339 µM
7 | CCOC(=O)Nc1ccc(-c2nc(-c3cccc(OCCN4CCOCC4)c3)c(-c3ccnc(Br)c3)[nH]2)cc1 | – | – | 3.07 µM | 47.6 µM | 2.74 µM | > 100 µM | – | – | 2.23 µM | > 100 µM | 2.97 µM | 13.7 µM | 4.36 µM | > 100 µM | 2.41 µM | 6.07 µM | 1.6 µM | 4.12 µM | > 100 µM | 2.53 µM
8 | Nc1nc(/C=C\c2ccc([N+](=O)[O-])s2)nc(N2CCCC2)n1 | – | – | 2.24 µM | 8.09 µM | 1.62 µM | 6.49 µM | 3.99 µM | 21.1 µM | 2.16 µM | 12.1 µM | 3.72 µM | 17.1 µM | 5 µM | 14.1 µM | 12.9 µM | 27.9 µM | 10.8 µM | 23.6 µM | 8.32 µM | 1.83 µM
9 | CC(=O)c1sc(Nc2nnc(-c3ccc(-c4nnc(Nc5nc(C)c(C(C)=O)s5)o4)cc3)o2)nc1C | – | > 100 µM | – | – | – | > 100 µM | – | > 100 µM | – | > 100 µM | – | > 100 µM | – | > 100 µM | – | – | – | > 100 µM | > 100 µM | –
10 | Cc1nn(-c2ccc(Cl)cc2)c2nc3c(nc12)C(=O)c1ccccc1-3 | > 100 µM | > 100 µM | > 100 µM | > 100 µM | > 100 µM | > 100 µM | > 100 µM | > 100 µM | > 100 µM | > 100 µM | > 100 µM | > 100 µM | – | – | > 100 µM | > 100 µM | 75.3 µM | > 100 µM | > 100 µM | > 100 µM
11 | CN(C)CC1CCCC/C1=N/OC(=O)c1ccc(Cl)cc1 (configuration not stated) | – | > 100 µM | – | – | – | > 100 µM | – | > 100 µM | – | > 100 µM | – | > 100 µM | – | > 100 µM | – | > 100 µM | – | > 100 µM | > 100 µM | –
12 | CCC[CH2][Sn]([Cl])([CH2]CCC)[CH2]CCC | 0.1 µM | 0.242 µM | – | – | 0.066 µM | 0.596 µM | – | – | 0.0522 µM | 0.632 µM | 0.162 µM | 0.308 µM | 0.0998 µM | 0.242 µM | 0.112 µM | 0.24 µM | 0.087 µM | 0.21 µM | 0.204 µM | 0.0411 µM
13 | COc1ccc(/C=C2/N=C(c3ccccc3)N(c3c(C)n(C)n(-c4ccccc4)c3=O)C2=O)cc1OC | > 100 µM | > 100 µM | > 100 µM | > 100 µM | – | – | > 100 µM | > 100 µM | 78.3 µM | > 100 µM | > 100 µM | > 100 µM | > 100 µM | > 100 µM | > 100 µM | > 100 µM | > 100 µM | > 100 µM | > 100 µM | > 100 µM
14 | COC(=O)C(Cc1nc2ccc(Cl)cc2[nH]c1=O)/C(=N\N)C(=O)Nc1cc(C)c(Cl)cc1S(=O)(=O)O (configuration not stated) | – | > 100 µM | – | – | – | > 100 µM | – | – | – | > 100 µM | – | > 100 µM | – | > 100 µM | – | > 100 µM | – | > 100 µM | > 100 µM | –
15 | C1CN2CCN3CCN4CCN1[P+]243 | – | > 100 µM | – | – | – | > 100 µM | – | > 100 µM | – | > 100 µM | – | > 100 µM | – | > 100 µM | – | > 100 µM | – | > 100 µM | > 100 µM | –
16 | CCOc1ccccc1NC(=O)C(=O)CC(=O)c1sc(Nc2nnc(-c3ccc(Cl)c(Cl)c3)o2)nc1C | – | > 100 µM | – | – | – | > 100 µM | – | > 100 µM | – | > 100 µM | – | > 100 µM | – | > 100 µM | – | > 100 µM | – | > 100 µM | > 100 µM | –
17 | C#C[C@]1(O)CCC2C3CCc4cc(O)ccc4C3CC[C@@]21C (some centres not stated) | 4.9 µM | 73 µM | 0.628 µM | 9.59 µM | 1.24 µM | 87.4 µM | 4.66 µM | 17.7 µM | 3.65 µM | 26.3 µM | 3.87 µM | 13.5 µM | 6.76 µM | 33.6 µM | 5.81 µM | 26.8 µM | 5.08 µM | 21.9 µM | – | –
18 | CCOc1ccc(NC(=O)C(=O)CC(=O)c2c(C)n([O-])c3ccccc3[n+]2=O)cc1 | – | > 100 µM | – | – | – | > 100 µM | – | > 100 µM | – | > 100 µM | – | > 100 µM | – | > 100 µM | – | > 100 µM | – | > 100 µM | > 100 µM | –
